According to patent publication US12187723B2 (BRISTOL-MYERS SQUIBB COMPANY, priority 2019, dated 2025):

target: T1, human TLR9 (Homo sapiens, UniProt Q9NR96); experiment: TLR9 inhibition reporter assay (HEK-Blue SEAP); format: cell-based; settings: HEK-Blue cells overexpressing human TLR9, ODN2006 5 nM, 22 hour incubation
T1 construct: host or cells: HEK-Blue cells
T1 sequence (Q9NR96 26-1032): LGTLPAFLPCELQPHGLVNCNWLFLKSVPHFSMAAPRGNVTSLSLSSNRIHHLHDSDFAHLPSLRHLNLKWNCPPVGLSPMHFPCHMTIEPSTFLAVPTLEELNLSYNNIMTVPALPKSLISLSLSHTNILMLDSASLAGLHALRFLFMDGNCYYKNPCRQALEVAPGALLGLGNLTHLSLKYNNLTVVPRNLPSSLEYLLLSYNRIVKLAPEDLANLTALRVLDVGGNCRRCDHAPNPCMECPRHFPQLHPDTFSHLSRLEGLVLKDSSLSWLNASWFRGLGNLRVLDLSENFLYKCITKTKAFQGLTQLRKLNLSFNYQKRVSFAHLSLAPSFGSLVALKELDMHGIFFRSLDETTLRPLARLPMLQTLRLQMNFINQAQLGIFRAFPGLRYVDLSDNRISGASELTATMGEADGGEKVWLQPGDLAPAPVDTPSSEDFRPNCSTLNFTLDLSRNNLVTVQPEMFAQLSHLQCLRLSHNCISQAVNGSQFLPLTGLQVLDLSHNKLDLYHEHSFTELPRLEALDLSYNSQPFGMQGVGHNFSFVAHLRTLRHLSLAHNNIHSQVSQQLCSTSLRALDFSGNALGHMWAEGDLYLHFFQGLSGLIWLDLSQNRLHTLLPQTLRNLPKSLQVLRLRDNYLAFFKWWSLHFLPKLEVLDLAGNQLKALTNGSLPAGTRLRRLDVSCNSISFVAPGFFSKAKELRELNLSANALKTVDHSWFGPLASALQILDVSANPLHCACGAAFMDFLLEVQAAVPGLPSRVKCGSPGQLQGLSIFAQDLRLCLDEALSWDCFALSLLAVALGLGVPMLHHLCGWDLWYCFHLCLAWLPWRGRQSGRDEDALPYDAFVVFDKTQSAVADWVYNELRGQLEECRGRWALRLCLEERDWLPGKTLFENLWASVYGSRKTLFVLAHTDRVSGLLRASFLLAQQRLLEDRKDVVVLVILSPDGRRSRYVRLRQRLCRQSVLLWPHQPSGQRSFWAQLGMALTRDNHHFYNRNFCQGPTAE
How it was run: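 Compound treatment: 30 min, RT, 0.05 nM–50 μM final. Agonist: TLR7 gardiquimod 7.5 μM; TLR8 R848 15.9 μM; TLR9 ODN2006 5 nM. Incubation 22 h, 37 °C, 5% CO2. Readout SEAP, HEK-Blue Detection.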

SMILES	IC50 [µM]
COc1cc(-c2cc3[nH]c(=O)n([C@@H]4CCCN(C5CCCOC5)C4)c3cc2C(C)C)cn2ncnc12 (single isomer, unassigned) [Example 219]	25.1
COCCN1CCC[C@@H](n2c(=O)[nH]c3cc(-c4cc(OC)c5ncnn5c4)c(C(C)C)cc32)C1 (single isomer, unassigned) [Example 225]	33.8
COc1c(C)c(-c2cc3[nH]c(=O)n(C4CCC(N5CCC(F)(F)CC5)CC4)c3cc2C(C)C)cn2ncnc12 (single isomer, unassigned) [Example 229, 1-(4-(4,4-difluoropiperidin-1-yl)cyclohexyl)-6-isopropyl-5-(8-methoxy-7-methyl-[1,2,4]triazolo[1,5-a]pyridin-6-yl)-1,3-dihydro-2H-benzo[d]imidazol-2-one]	30
COc1c(C)c(-c2cc3[nH]c(=O)n(C4CCC(N5CCC(F)(F)CC5)CC4)c3cc2C(C)C)cn2ncnc12 (single isomer, unassigned) [Example 230, 1-(4-(4,4-difluoropiperidin-1-yl)cyclohexyl)-6-isopropyl-5-(8-methoxy-7-methyl-[1,2,4]triazolo[1,5-a]pyridin-6-yl)-1,3-dihydro-2H-benzo[d]imidazol-2-one]	> 50
COc1cc(-c2cc3[nH]c(=O)n(C4CCC(N5CCNC(=O)C5)CC4)c3cc2C(C)C)cn2ncnc12 (single isomer, unassigned) [Example 233, 6-isopropyl-5-(8-methoxy-[1,2,4]triazolo[1,5-a]pyridin-6-yl)-1-(4-(3-oxopiperazin-1-yl)cyclohexyl)-1,3-dihydro-2H-benzo[d]imidazol-2-one]	> 50
COc1cc(-c2cc3[nH]c(=O)n(C4CCC(N5CCNC(=O)C5)CC4)c3cc2C(C)C)cn2ncnc12 (single isomer, unassigned) [Example 234, 6-isopropyl-5-(8-methoxy-[1,2,4]triazolo[1,5-a]pyridin-6-yl)-1-(4-(3-oxopiperazin-1-yl)cyclohexyl)-1,3-dihydro-2H-benzo[d]imidazol-2-one]	> 50
COc1cc(-c2cc3[nH]c(=O)n(C4CCC(N5CC(O)(C(F)(F)F)C5)CC4)c3cc2C(C)C)cn2ncnc12 (single isomer, unassigned) [Example 241, 1-(4-(3-hydroxy-3-(trifluoromethyl)azetidin-1-yl)cyclohexyl)-6-isopropyl-5-(8-methoxy-[1,2,4]triazolo[1,5-a]pyridin-6-yl)-1,3-dihydro-2H-benzo[d]imidazol-2-one]	> 50

Stronger by IC50, values ahead:

IC50 [µM]	SMILES
24.2	COc1cc(-c2cc3[nH]c(=O)n([C@@H]4CCCN(C5CCCOC5)C4)c3cc2C(C)C)cn2ncnc12 (single isomer, unassigned) [Example 218]
23.7	COc1cc(-c2cc3[nH]c(=O)n(C4CCC(N5CC(O)(C(F)(F)F)C5)CC4)c3cc2C(C)C)cn2ncnc12 (single isomer, unassigned) [Example 242, 1-(4-(3-hydroxy-3-(trifluoromethyl)azetidin-1-yl)cyclohexyl)-6-isopropyl-5-(8-methoxy-[1,2,4]triazolo[1,5-a]pyridin-6-yl)-1,3-dihydro-2H-benzo[d]imidazol-2-one]
11.2	COc1cc(-c2cc3[nH]c(=O)n(C4CCC(N5CC6(CCOCC6)C5)CC4)c3cc2C(C)C)cn2ncnc12 (single isomer, unassigned) [Example 235, 1-(4-(7-oxa-2-azaspiro[3.5]nonan-2-yl)cyclohexyl)-6-isopropyl-5-(8-methoxy-[1,2,4]triazolo[1,5-a]pyridin-6-yl)-1,3-dihydro-2H-benzo[d]imidazol-2-one]
2.59	COc1cc(-c2cc3[nH]c(=O)n(C4CCC(N5CC6(CCOCC6)C5)CC4)c3cc2C(C)C)cn2ncnc12 (single isomer, unassigned) [Example 236, 1-(4-(7-oxa-2-azaspiro[3.5]nonan-2-yl)cyclohexyl)-6-isopropyl-5-(8-methoxy-[1,2,4]triazolo[1,5-a]pyridin-6-yl)-1,3-dihydro-2H-benzo[d]imidazol-2-one]
